Tested on: C57BL/6 mice
Assay: Warm renal ischemia/reperfusion, 30 minutes ischemia (Example 2)
Format: in vivo
Settings: mean±SEM, n=6, 1 day after 30 min ischemia/reperfusion
Description: Nine Experimental groups were used as follows: • 1) Sham-operated mice sacrificed 1 day after surgery, n=6, • 2) PBS-vehicle-treated mice 15 min before ischemia/1 day reperfusion, n=6, • 3) Isotype control antibody 10 mg/kg-treated mice 15 minutes before ischemia/1 day reperfusion, n=6 (The isotype control antibody is mouse IgG1 isotype control purchased from RnD systems (catalogue number MAB002), this isotype control antibody having binding specificity for Keyhole Limpet Hemocyanin (KLH) antigen), • 4) OPN301 anti-TLR2 monoclonal antibody 10 mg/kg-treated mice 15 minutes before ischemia/1 day reperfusion, n=6, • 5) Pargyline 6 mg/kg-treated mice 15 minutes before ischemia/1 day reperfusion, n=6, • 6) PBS-vehicle-treated mice 15 minutes before ischemia/5 days reperfusion, n=6, • 7) Isotype control antibody (RnD systems catalogue number MAB002) 10 mg/kg-treated mice 15 minutes before ischemia/5 days reperfusion, n=6, • 8) OPN301 anti-TLR2 antibody 10 mg/kg-treated mice 15 minutes before ischemia/5 days reperfusion, n=6, • 9) Pargyline 6 mg/kg-treated mice 15 minutes before ischemia/5 days reperfusion, n=6. Experimental Warm Renal Ischemia/Reperfusion
Warm renal ischemia/reperfusion (I/R) experiments were adapted from a previous study (Stokman et al, 2005). Briefly, a wild type strain of C57BL/6 mice were anesthetized with 10 μl/g of a mix of 2.5 ml ketamine (Ketalar 50 mg/ml, Centravet; Lapalisse, France), 0.5 ml xylazine (Rompun 2.5%, Centravet; Lapalisse, France), and 7 ml NaCl 0.9% (Centravet; Lapalisse, France). During surgery, animals were set on a 35° C. hotplate. After a 2 millimeters incision, the jugular vein was exposed for intravenous injection (insulin syringe; VWR, Fontenay-sous-Bois, France) of 300 μl (1 min infusion) of the considered treatment. The incision was closed after haemostasis (5/0 Ethicrin thread, Ethicon; Auneau, France). Three centimetre in length abdominal cutaneous and muscular incisions were performed; renal pedicles were exposed and clamped for 30 minutes using microaneurysm clamps (AREX; Palaiseau, France). […]

C#CCN(C)Cc1ccccc1 [Pargyline]
MDA level (lipid peroxidation) (PBS-vehicle 0.082±0.004): 0.051±0.002 nmol/mg proteins | MPO activity (neutrophil accumulation in renal tissue) (PBS-vehicle 63.2±9.55): 53.48±5.34 U MPO/mg protein | F4/80-positive staining (macrophage infiltration) (treated 15 min before ischemia (antibodies 10 mg/kg, pargyline 6 mg/kg), PBS-vehicle 3.24±0.21): 1.39±0.15%
